Source: US11045438B2, “Cysteine composition and injection” (Exela Sterile Medicines LLC, priority 2019, dated 2021)
Converted amounts (≈) assume the structure as drawn. Where two headings read alike, the source gives them in different places.

Assays:
[1] = physchem; details: 22 °C
Source text: Cystine, a sulfur-sulfur dimer of cysteine, can form in the presence of oxygen (air) in cysteine solutions. Cystine, especially the free base, is several orders of magnitude less soluble in aqueous solutions than cysteine, and the solubility of cystine decreases as the pH increases.

[2] = cited from earlier work
[3] = aqueous with cosolvent or surfactant or cyclodextrin

SMILES	solubility ([1]; water) [µg/mL]	solubility [1, 3] [µg/mL]	solubility ([2]; pH 1.0)	solubility ([2]; pH 1.4)
N[C@@H](CS)C(=O)O [Cysteine free base, Cysteine]	18700 (≈ 155000 µM)			
Cl.Cl.N[C@@H](CSSC[C@H](N)C(=O)O)C(=O)O [Cystine Dihydrochloride]	1040	9930		
N[C@@H](CSSC[C@H](N)C(=O)O)C(=O)O [Cystine free Base, Cystine]	140 (≈ 583 µM)	590 (≈ 2460 µM)	approximately 4 mg/mL	approximately 1 mg/ml
